{"source": "patent US20160312284A1", "about": "“SELECT SINGLE NUCLEOTIDE POLYMORPHISMS PREDICTIVE OF RESPONSE TO GLATIRAMER ACETATE” (Teva Pharmaceutical Industries, Ltd., priority 2015, published 2016)", "key": {"RRMS subjects": {"test_system": "RRMS subjects", "settings": "largest controlled study, GA 20 mg; cited from earlier work"}, "[1]": {"test_system": "Relapsing-Remitting Multiple Sclerosis (RR-MS) patients", "assay": "FORTE phase 3 trial (two doses of GA): response categories and ARR by predictive model", "assay_type": "in vivo, human", "source_text": "As used herein, “FORTE” is a phase 3 clinical trial entitled “Clinical Trial Comparing Treatment of Relapsing-Remitting Multiple Sclerosis (RR-MS) With Two Doses of Glatiramer Acetate (GA).” The FORTE trial has the ClinicalTrials.gov Identifier NCT00337779 and additional information, including study results can be found at clinicaltrials.gov/ct2/show/NCT00337779.\n(§1) Response definitions were received from patients from two large glatiramer acetate clinical trial cohorts (GALA, FORTE) and patients were categorized as responder, non-responder, extreme-responder, or extreme non-responder according to the criteria set forth in Table 1.\n(§2) To identify genetic markers associated with high response to Copaxone® comprising the following characteristics: (1) high response as measured by ARR reductions, (2) predictive, not prognostic, markers: associated with response only in Copaxone®-treated patients, and not in the placebo group, (3) markers that are confirmed in an independent cohort, and (4) a subset of GALA and FORTE studies' patients with clarly defined response phenotypes (high responders versus low responders) (FIG. 6) Patient DNA samples were genotyped for 4.3 million genetic variants (Illumina HumanOmni5 array).\n(§3) Regression analysis was applied, with the threshold for distinguishing responders from non-responders was selected by analysis of receiver-operator curves. Intermediate responders were genotyped by either Illumina 5M array or focused taqman-based SNP genotyping and Sanger sequencing."}, "[2]": {"test_system": "genotyped patients of the GALA and FORTE cohorts", "assay": "Combined GALA and FORTE cohorts: patient responses predicted by preliminary predictive model (model 3, threshold 0.71)", "assay_type": "in vivo, human", "protocol": "A predictive model was generated based on the 11 SNPs shown in tables 32 and 33 and the two Clinical co-variants shown in table 23.\nReceiver Operating Characteristic (ROC) analysis was performed using the actual value (case or control) and predicted value for each sample from the multi-marker regression model (FIG. 1). For these preliminary analyses, two risk groups were defined using the predicted values from the multi-marker regression model. The predictive threshold value was set at 0.71 (termed “model 3”) based on a variety of factors after consultation with the Teva team and Teva MS clinical experts.\nUltimately, a threshold that best differentiated between responders and non-responders (minimum positive predictive value of 90% or higher) (FIG. 2), while maximizing the number of predicted responders (predicted responders >60%) (FIG. 3) was selected. This threshold also coincided with the lowest p-value of all the thresholds examined (Chi square p-value 6.1×10^−46, odds ratio 19.9) (FIG. 4). The positive predictive value (% of all predicted responders to be true responders) was 91.1%, sensitivity (% of all true responders detected) was 80.2%; specificity (% of all true non-responders classified as non-responders) was 83.1%; and the negative predictive value ([…]) was 65.9%.\nWhile 40% of patients were classified as “predicted non-responders” with an overall response rate of 34% (FIG. 5)."}, "[3]": {"test_system": "Subjects With Relapsing-Remitting Multiple Sclerosis (RRMS)", "assay": "GALA phase 3 trial (GA 40 mg three times a week vs placebo): response categories and ARR by predictive model", "assay_type": "in vivo, human", "protocol": "As used herein, “GALA” is a phase 3 clinical trial entitled “A Study in Subjects With Relapsing-Remitting Multiple Sclerosis (RRMS) to Assess the Efficacy, Safety and Tolerability of Glatiramer Acetate (GA) Injection 40 mg Administered Three Times a Week Compared to Placebo (GALA).” The GALA trial has the ClinicalTrials.gov Identifier NCT01067521, and additional information about the trial can be found at clinicaltrials.gov/ct2/show/NCT01067521.\nas §1, §2, §3"}, "[4]": {"settings": "change in ARR < -1 and new T2 lesions = 0 and relapse free"}, "[5]": {"settings": "change in ARR >= 0 and new T2 lesions >= 1"}, "[6]": {"settings": "change in ARR from previous 2 years < -1"}, "[7]": {"settings": "change in ARR from previous 2 years >= 0"}}, "data": [{"substance": "Glatiramer acetate", "values": [{"measurement": "relapse rate reduced vs placebo", "setting": "RRMS subjects", "result": 32, "unit": "%"}, {"measurement": "Extreme Responders (% of cohort)", "setting": "[1]; [4]", "result": "(16%)"}, {"measurement": "Extreme Non-Responders (% of cohort)", "setting": "[1]; [5]", "result": "(6%)"}, {"measurement": "Responders (% of cohort)", "setting": "[1]; [6]", "result": "(36%)"}, {"measurement": "Non-Responders (% of cohort)", "setting": "[1]; [7]", "result": "(11%)"}, {"measurement": "improvement in response rate, predicted responders vs overall cohort", "setting": "[2]; 68% vs. 91%", "result": 34, "unit": "%"}, {"measurement": "improved response rate, predicted responders vs predicted non-responders", "setting": "[2]; P<10^-40", "result": 2.7, "unit": "fold"}, {"measurement": "ARR reduced (improved), predicted responders vs overall patient cohort", "setting": "[2]; human, in vivo", "result": 60, "unit": "%"}, {"measurement": "nrelapse reduced (improved), predicted responders vs overall patient cohort", "setting": "[2]; human, in vivo", "result": 58, "unit": "%"}, {"measurement": "EDSS progression delayed (improved), predicted responders vs predicted non-responders", "setting": "[2]; p-value 0.00095", "result": 72, "unit": "%"}, {"measurement": "T1 enhancing lesions at month 12 reduced (improved), predicted responders vs predicted non-responders", "setting": "[2]; p-value 0.043", "result": 47, "unit": "%"}, {"measurement": "reduced EDSS progression, predicted responders vs overall cohort", "setting": "[2]; p-value 0.08", "result": 49, "unit": "%"}, {"measurement": "ARR reduced (improved), predicted responders vs predicted non-responders", "setting": "[2]; p-value 2.2×10^-25", "result": 80, "unit": "%"}, {"measurement": "nrelapse reduced (improved), predicted responders vs predicted non-responders", "setting": "[2]; p-value 7.70×10^-32", "result": 78, "unit": "%"}, {"measurement": "overall response rate", "setting": "[2]; predicted non-responders (40% of patients)", "result": 34, "unit": "%"}, {"measurement": "Extreme Responders (% of cohort)", "setting": "[3]; [4]", "result": "(8.5%)"}, {"measurement": "Extreme Non-Responders (% of cohort)", "setting": "[3]; [5]", "result": "(10%)"}, {"measurement": "Responders (% of cohort)", "setting": "[3]; [6]", "result": "(26%)"}, {"measurement": "Non-Responders (% of cohort)", "setting": "[3]; [7]", "result": "(16%)"}]}]}
